# Data reported in US8119801B2, “HIV inhibiting 2-(4-cyanophenyl)-6-hydroxylaminopyrimidines” (priority 2005, dated 2012).
# Columns and labels:
# [1] = test system: Strain IIIB, wild type HIV-LAI strain; experiment: Antiviral spectrum cellular assay, strain IIIB; type: cell-based; conditions: Human immunodeficiency virus 1, IIIB, read-out: pEC50 against strain IIIB (converted)
# Protocol: (§1) Because of the increasing emergence of drug resistant HIV strains, the present compounds were tested for their potency against clinically isolated HIV strains harboring several mutations. These mutations are associated with resistance to reverse transcriptase inhibitors and result in viruses that show various degrees of phenotypic cross-resistance to the currently commercially available drugs such as for instance AZT and delavirdine.
# (§2) The antiviral activity of the compound of the present invention is evaluated in the presence of wild type HIV and HIV mutants bearing mutations at the reverse transcriptase gene. The activity of the compounds is evaluated using a cellular assay and the residual activity is expressed in pEC50 values. The columns IIIB and A-G in the table list the pEC50 values against various strains IIIB, A-G.
# Strain IIIB is wild type HIV-LAI strain;
# [2] = test system: Strain A, mutation Y181C in HIV reverse transcriptase; experiment: Antiviral spectrum cellular assay, strain A; type: cell-based; conditions: Human immunodeficiency virus 1, read-out: pEC50 against strain A (converted)
# Protocol: as §1, §2
# Strain A contains mutation Y181C in HIV reverse transcriptase, […]
# [3] = test system: Strain G, mutations L100I, K103N, E138G, V179I, Y181C, L214F, V276V/I and A327A/V in HIV reverse transcriptase; experiment: Antiviral spectrum cellular assay, strain G; type: cell-based; conditions: for EC50: Human immunodeficiency virus 1, read-out: pEC50 against strain G (converted)
# Protocol: as §1, §2
# [4] = test system: Strain B, mutation K103N in HIV reverse transcriptase; experiment: Antiviral spectrum cellular assay, strain B; type: cell-based; conditions: Human immunodeficiency virus 1, read-out: pEC50 against strain B (converted)
# Protocol: as §1, §2
# Strain B contains mutation K103N in HIV reverse transcriptase, […]
# [5] = test system: Strain C, mutation L100I in HIV reverse transcriptase; experiment: Antiviral spectrum cellular assay, strain C; type: cell-based; conditions: Human immunodeficiency virus 1, read-out: pEC50 against strain C (converted)
# Protocol: as §1, §2
# Strain C contains mutation L100I in HIV reverse transcriptase, […]
# [6] = test system: Strain D, mutation Y188L and S162K in HIV reverse transcriptase; experiment: Antiviral spectrum cellular assay, strain D; type: cell-based; conditions: Human immunodeficiency virus 1, read-out: pEC50 against strain D (converted)
# Protocol: as §1, §2
# Strain D contains mutation Y188L and S162K in HIV reverse transcriptase, […]
# [7] = test system: Strain E, mutations L100I and K103N in HIV reverse transcriptase; experiment: Antiviral spectrum cellular assay, strain E; type: cell-based
# Protocol: as §1, §2
# Strain E contains mutations L100I and K103N in HIV reverse transcriptase, […]
# [8] = test system: Strain F, mutations K101E and K103N in HIV reverse transcriptase; experiment: Antiviral spectrum cellular assay, strain F; type: cell-based
# Protocol: as §1, §2
# Strain F contains mutations K101E and K103N in HIV reverse transcriptase.
# [9] = compared to reference compound A
SMILES,EC50 [1],EC50 [2],EC50 [3],EC50 [4],EC50 [5],EC50 [6],"EC50 ([7]; Human immunodeficiency virus 1, read-out: pEC50 against strain E (converted))","activity against double mutant strain E compared to reference compound A [7, 9]","EC50 ([8]; Human immunodeficiency virus 1, read-out: pEC50 against strain F (converted))","activity against double mutant strain F compared to reference compound A [8, 9]","activity against multiple mutated strain G compared to reference compound A [3, 9]",melting point
"Cc1cc(C#N)cc(C)c1Oc1nc(Nc2ccc(C#N)cc2)nc(N)c1Br [Compound A, reference compound]",2.82 nM,10 nM,5.75 µM,,,,,,,,,
"Cc1cc(C#N)cc(C)c1Oc1nc(Nc2ccc(C#N)cc2)nc(NO)c1Br [Compound 1, 4-[[6-hydroxylamino-5-bromo-2-[(4-cyanophenyl)amino]-4-pyrimidinyl]oxy]-3,5-dimethylbenzonitrile]",3.98 nM,12 nM,0.479 µM,2.34 nM,1.2 nM,3.02 nM,1.86 nM,improved activity,3.63 nM,improved activity,improved activity,211 °C (dec.)
